Experiments:
Assay type in all cases: in vivo
[1] = tested on: Cabbage Looper (Trichoplusia ni, TRIPNI); test: Bioassays on Cabbage Looper (CL), 128-well diet tray assay; settings: Trichoplusia ni; Cabbage Looper, Table ABC / ABC-DP rating; read-out: CL rating
How it was run: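 Diet tray, 2nd instar, 1–5 larvae/well; 50 μg/cm^2 compound surface-applied (acetone:water 90:10), dried; 8 wells/treatment; 25° C, 14:10 L:D, 5–7 d; % mortality, mean of 8 wells.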

[2] = tested on: Yellow Fever Mosquito (Aedes aegypti, AEDSAE); settings: Yellow Fever Mosquito, Table ABC / ABC-DP rating
How it was run: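 Rating-scale grades reflect larval mortality scored per well after 3 days at room temperature under non-evaporative lids. Larvae (~1 day old, hatched overnight in liver-powder water) were added to six daughter plates per compound, prepared from a 4000 ppm DMSO stock diluted in 90:10 water/acetone.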

[3] = tested on: Beet Armyworm (Spodoptera exigua, LAPHEG); test: Bioassays on Beet Armyworm (BAW), 128-well diet tray assay; settings: Spodoptera exigua; Beet Armyworm, Table ABC / ABC-DP rating; read-out: BAW rating
How it was run: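 Eight diet wells per compound were treated at 50 μg/cm^2 (acetone-water 90:10), dried, then infested with 1–5 second-instar larvae each. After five to seven days at 25 °C under 14:10 photoperiod, mortality was scored and averaged across wells.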

## CN(C(=O)c1cc(NC(=O)[C@H]2[C@H](c3ccc(F)c(C(F)(F)F)c3)C2(Cl)Cl)ccc1Cl)c1ccc(F)c(NC(=O)COC(F)(F)F)c1F [F1796, 2-Chloro-5-((1R,3R)-2,2-dichloro-3-(4-fluoro-3-(trifluoromethyl)phenyl)cyclopropane-1-carboxamido)-N-(2,4-difluoro-3-(2-(trifluoromethoxy)acetamido)phenyl)-N-methylbenzamide]
[1]
  pest or weed control at 50 µg/cm2: 50 to 100%
[2]
  YFM rating: A (80–100)
[3]
  pest or weed control at 50 µg/cm2: 50 to 100%

## CCOC(C)C(=O)Nc1c(F)ccc(N(C)C(=O)c2cc(NC(=O)[C@H]3[C@H](c4ccc(F)c(C(F)(F)F)c4)C3(Cl)Cl)ccc2Cl)c1F (stereo partly drawn) [F1797, 2-Chloro-5-((1R,3R)-2,2-dichloro-3-(4-fluoro-3-(trifluoromethyl)phenyl)cyclopropane-1-carboxamido)-N-(3-(2-ethoxypropanamido)-2,4-difluorophenyl)-N-methylbenzamide]
[1]
  pest or weed control at 50 µg/cm2: 50 to 100%
[2]
  YFM rating: A (80–100)
[3]
  pest or weed control at 50 µg/cm2: 50 to 100%

## CN(C(=O)c1cc(NC(=O)[C@H]2[C@H](c3ccc(F)c(C(F)(F)F)c3)C2(Cl)Cl)ccc1Cl)c1ccc(F)c(NC(=O)C2CCCO2)c1F (stereo partly drawn) [F1798, N-(3-(2-Chloro-5-((1R,3R)-2,2-Dichloro-3-(4-fluoro-3-(trifluoromethyl)phenyl)cyclopropane-1-carboxamido)-N-methylbenzamido)-2,6-difluorophenyl)tetrahydrofuran-2-carboxamide]
[1]
  pest or weed control at 50 µg/cm2: 50 to 100%
[2]
  YFM rating: B (More than 0 – Less than 80)
[3]
  pest or weed control at 50 µg/cm2: 50 to 100%

## CC(=O)Nc1c(F)ccc(N(C)C(=O)c2cc(NC(=O)[C@H]3[C@H](c4ccc(F)c(C(F)(F)F)c4)C3(Cl)Cl)ccc2Cl)c1F [F1799, N-(3-Acetamido-2,4-difluorophenyl)-2-chloro-5-((1R,3R)-2,2-dichloro-3-(4-fluoro-3-(trifluoromethyl)phenyl)cyclopropane-1-carboxamido)-N-methylbenzamide]
[1]
  pest or weed control at 50 µg/cm2: 50 to 100%
[2]
  YFM rating: A (80–100)
[3]
  pest or weed control at 50 µg/cm2: 50 to 100%

## O=C(CCC(F)(F)F)Nc1c(F)ccc(NC(=O)c2cc(NC(=O)[C@H]3[C@H](c4ccc(F)c(C(F)(F)F)c4)C3(Cl)Cl)ccc2Cl)c1F [F1800, 2-Chloro-5-((1R,3R)-2,2-dichloro-3-(4-fluoro-3-(trifluoromethyl)phenyl)cyclopropane-1-carboxamido)-N-(2,4-difluoro-3-(4,4,4-trifluorobutanamido)phenyl)benzamide]
[1]
  pest or weed control at 50 µg/cm2: 50 to 100%
[2]
  YFM rating: A (80–100)
[3]
  pest or weed control at 50 µg/cm2: 50 to 100%

## O=C(COC(F)(F)C(F)(F)F)Nc1c(F)ccc(NC(=O)c2cc(NC(=O)[C@H]3[C@H](c4ccc(F)c(C(F)(F)F)c4)C3(Cl)Cl)ccc2Cl)c1F [F1808, 2-Chloro-5-((1R,3R)-2,2-dichloro-3-(4-fluoro-3-(trifluoromethyl)phenyl)cyclopropane-1-carboxamido)-N-(2,4-difluoro-3-(2-(perfluoroethoxy)acetamido)phenyl)benzamide]
[1]
  pest or weed control at 50 µg/cm2: 50 to 100%
[2]
  YFM rating: B (More than 0 – Less than 80)
[3]
  pest or weed control at 50 µg/cm2: 50 to 100%

## CC1(C(=O)Nc2c(F)ccc(NC(=O)c3cc(NC(=O)[C@H]4[C@H](c5ccc(F)c(C(F)(F)F)c5)C4(Cl)Cl)ccc3Cl)c2F)CCCO1 (stereo partly drawn) [F1809, N-(3-(2-Chloro-5-((1R,3R)-2,2-dichloro-3-(4-fluoro-3-(trifluoromethyl)phenyl)cyclopropane-1-carboxamido)benzamido)-2,6-difluorophenyl)-2-methyltetrahydrofuran-2-carboxamide]
[1]
  pest or weed control at 50 µg/cm2: 50 to 100%
[2]
  YFM rating: A (80–100)
[3]
  pest or weed control at 50 µg/cm2: 50 to 100%

## C#CCN(C(=O)CC#N)c1c(F)ccc(NC(=O)c2cc(NC(=O)[C@H]3[C@H](c4ccc(F)c(C(F)(F)F)c4)C3(Cl)Cl)ccc2Cl)c1F [F1810, 2-Chloro-N-(3-(2-cyano-N-(prop-2-yn-1-yl)acetamido)-2,4-difluorophenyl)-5-((1R,3R)-2,2-dichloro-3-(4-fluoro-3-(trifluoromethyl)phenyl)cyclopropane-1-carboxamido)benzamide]
[1]
  pest or weed control at 50 µg/cm2: 50 to 100%
[2]
  YFM rating: A (80–100)
[3]
  pest or weed control at 50 µg/cm2: 50 to 100%

## O=C(Nc1ccc(F)c(NC(=O)C(F)(F)F)c1)c1cc(NC(=O)[C@H]2[C@H](c3ccc(Cl)c(Cl)c3)C2(Cl)Cl)ccc1Cl [F1812, 2-Chloro-5-((1R,3R)-2,2-dichloro-3-(3,4-dichlorophenyl)cyclopropane-1-carboxamido)-N-(4-fluoro-3-(2,2,2-trifluoroacetamido)phenyl)benzamide]
[1]
  pest or weed control at 50 µg/cm2: 50 to 100%
[2]
  YFM rating: B (More than 0 – Less than 80)
[3]
  pest or weed control at 50 µg/cm2: 50 to 100%

## O=C(Nc1ccc(F)c(NC(=O)C(F)(F)F)c1)c1cc(NC(=O)[C@H]2[C@H](c3cc(Cl)cc(Cl)c3)C2(Cl)Cl)ccc1Cl [F1813, 2-Chloro-5-((1R,3R)-2,2-dichloro-3-(3,5-dichlorophenyl)cyclopropane-1-carboxamido)-N-(4-fluoro-3-(2,2,2-trifluoroacetamido)phenyl)benzamide]
[1]
  pest or weed control at 50 µg/cm2: 50 to 100%
[2]
  YFM rating: A (80–100)
[3]
  pest or weed control at 50 µg/cm2: 50 to 100%

## O=C(Nc1ccc(F)c(NC(=O)C(F)(F)F)c1)c1cc(NC(=O)[C@H]2[C@H](c3ccc(F)c(Cl)c3)C2(Cl)Cl)ccc1Cl [F1814, 2-Chloro-5-((1R,3R)-2,2-dichloro-3-(3-chloro-4-fluorophenyl)cyclopropane-1-carboxamido)-N-(4-fluoro-3-(2,2,2-trifluoroacetamido)phenyl)benzamide]
[1]
  pest or weed control at 50 µg/cm2: 50 to 100%
[2]
  YFM rating: A (80–100)
[3]
  pest or weed control at 50 µg/cm2: 50 to 100%

## O=C(Nc1ccc(F)c(NC(=O)C(F)(F)F)c1)c1cc(NC(=O)[C@H]2[C@H](c3ccc(F)c(C(F)(F)F)c3)C2(Cl)Cl)ccc1Cl [F1815, 2-Chloro-5-((1R,3R)-2,2-dichloro-3-(4-fluoro-3-(trifluoromethyl)phenyl)cyclopropane-1-carboxamido)-N-(4-fluoro-3-(2,2,2-trifluoroacetamido)phenyl)benzamide]
[1]
  pest or weed control at 50 µg/cm2: 50 to 100%
[2]
  YFM rating: A (80–100)
[3]
  pest or weed control at 50 µg/cm2: 50 to 100%

## O=C(Nc1c(F)ccc(NC(=O)c2cc(NC(=O)[C@H]3[C@H](c4ccc(F)c(C(F)(F)F)c4)C3(Cl)Cl)ccc2Cl)c1F)c1ccon1 [F1818, N-(3-(2-Chloro-5-((1R,3R)-2,2-dichloro-3-(4-fluoro-3-(trifluoromethyl)phenyl)cyclopropane-1-carboxamido)benzamido)-2,6-difluorophenyl)isoxazole-3-carboxamide]
[1]
  pest or weed control at 50 µg/cm2: 50 to 100%
[2]
  YFM rating: A (80–100)
[3]
  pest or weed control at 50 µg/cm2: 50 to 100%

## O=C(Nc1c(F)ccc(NC(=O)c2cc(NC(=O)[C@H]3[C@H](c4ccc(F)c(C(F)(F)F)c4)C3(Cl)Cl)ccc2Cl)c1F)c1ccn(CC(F)(F)F)n1 [F1819, N-(3-(2-Chloro-5-((1R,3R)-2,2-dichloro-3-(4-fluoro-3-(trifluoromethyl)phenyl)cyclopropane-1-carboxamido)benzamido)-2,6-difluorophenyl)-1-(2,2,2-trifluoroethyl)-1H-pyrazole-3-carboxamide]
[1]
  pest or weed control at 50 µg/cm2: 50 to 100%
[2]
  YFM rating: A (80–100)
[3]
  pest or weed control at 50 µg/cm2: 50 to 100%

## CCOC(=O)C(F)C(=O)Nc1c(F)ccc(NC(=O)c2cc(NC(=O)[C@H]3[C@H](c4ccc(F)c(C(F)(F)F)c4)C3(Cl)Cl)ccc2Cl)c1F (stereo partly drawn) [F1822, Ethyl 3-((3-(2-chloro-5-((1R,3R)-2,2-dichloro-3-(4-fluoro-3-(trifluoromethyl)phenyl)cyclopropane-1-carboxamido)benzamido)-2,6-difluorophenyl)amino)-2-fluoro-3-oxopropanoate]
[1]
  pest or weed control at 50 µg/cm2: 50 to 100%
[2]
  YFM rating: A (80–100)
[3]
  pest or weed control at 50 µg/cm2: 50 to 100%

## N#CCC(=O)N(CCF)c1c(F)ccc(NC(=O)c2cc(NC(=O)[C@H]3[C@H](c4ccc(F)c(C(F)(F)F)c4)C3(Cl)Cl)ccc2Cl)c1F [F1823, 2-Chloro-N-(3-(2-cyano-N-(2-fluoroethyl)acetamido)-2,4-difluorophenyl)-5-((1R,3R)-2,2-dichloro-3-(4-fluoro-3-(trifluoromethyl)phenyl)cyclopropane-1-carboxamido)benzamide]
[1]
  pest or weed control at 50 µg/cm2: 50 to 100%
[2]
  YFM rating: A (80–100)
[3]
  pest or weed control at 50 µg/cm2: 50 to 100%

## O=C(Nc1ccc(F)c(NCCF)c1F)c1cc(NC(=O)[C@H]2[C@H](c3ccc(F)c(C(F)(F)F)c3)C2(Cl)Cl)ccc1Cl [F1826, 2-Chloro-5-((1R,3R)-2,2-dichloro-3-(4-fluoro-3-(trifluoromethyl)phenyl)cyclopropane-1-carboxamido)-N-(2,4-difluoro-3-((2-fluoroethyl)amino)phenyl)benzamide]
[1]
  pest or weed control at 50 µg/cm2: 50 to 100%
[2]
  YFM rating: A (80–100)
[3]
  pest or weed control at 50 µg/cm2: 50 to 100%

## CCOC(C)C(=O)N(CC)c1c(F)ccc(NC(=O)c2cc(NC(=O)[C@H]3[C@H](c4ccc(F)c(C(F)(F)F)c4)C3(Cl)Cl)ccc2Cl)c1F (stereo partly drawn) [F1827, 2-Chloro-5-((1R,3R)-2,2-dichloro-3-(4-fluoro-3-(trifluoromethyl)phenyl)cyclopropane-1-carboxamido)-N-(3-(2-ethoxy-N-ethylpropanamido)-2,4-difluorophenyl)benzamide]
[1]
  pest or weed control at 50 µg/cm2: 50 to 100%
[2]
  YFM rating: A (80–100)
[3]
  pest or weed control at 50 µg/cm2: 50 to 100%

From patent US20250228239A1, “MOLECULES HAVING PESTICIDAL UTILITY, AND INTERMEDIATES, COMPOSITIONS, AND PROCESSES, RELATED THERETO” (priority 2024, published 2025)
